Assay results as given in US8071651B2, “5-amino-4-hydroxy-7-(imidazo [1,2-A] pyridin-6-ylmethyl)-8-methyl-nonamide derivatives and related compounds as renin inhibitors for the treatment of hypertension” (Novartis AG, priority 2005, dated 2011).

Each compound was assayed against T1, renin (Homo sapiens, UniProt P00797) (assay: in vitro test of Nussberger et al.: formation of angiotensin I in human plasma, determined by radio-immunoassay). Conditions: concentration of inhibitor which reduces the formation of angiotensin I in human plasma by 50%.
T1 construct: This test measures the formation of angiotensin I in human plasma; from tissue; host or cells: human plasma
T1 sequence (P00797 67-406): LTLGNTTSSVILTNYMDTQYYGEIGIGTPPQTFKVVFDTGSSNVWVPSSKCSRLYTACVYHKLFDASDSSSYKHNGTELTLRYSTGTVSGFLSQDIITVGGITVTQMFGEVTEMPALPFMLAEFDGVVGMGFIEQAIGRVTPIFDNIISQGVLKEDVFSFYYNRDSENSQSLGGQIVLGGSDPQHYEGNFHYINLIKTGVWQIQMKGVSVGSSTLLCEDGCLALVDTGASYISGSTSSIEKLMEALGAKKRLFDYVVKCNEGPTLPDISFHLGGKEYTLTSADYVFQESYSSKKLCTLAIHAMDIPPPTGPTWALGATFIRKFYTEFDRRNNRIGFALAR
Assay type: biochemical
Method: The effect of renin inhibitors is detected inter alia experimentally by means of in vitro tests where the reduction in the formation of angiotensin I is measured in various systems (human plasma, purified human renin together with synthetic or natural renin substrate). The following in vitro test of Nussberger et al. (1987) J. Cardiovascular Pharmacol., Vol. 9, pp. 39-44, is used, inter alia. This test measures the formation of angiotensin I in human plasma. The amount of angiotensin I formed is determined in a subsequent radio-immunoassay. The effect of inhibitors on the formation of angiotensin I is tested in this system by adding various concentrations of these substances. The IC50 is defined as the concentration of the particular inhibitor which reduces the formation of angiotensin I by 50%. The compounds of the present invention show inhibitory effects in the in vitro systems at minimal concentrations of about 10^−6 to about 10^−10 mol/l.

IC50 | SMILES
2.6 nM | COCCCCc1cc(CC(CC(N)C(O)CC(C(=O)NCC2CCOCC2)C(C)C)C(C)C)cc(C)n1 (centres unmarked) [Example 32JJJ]
4.8 nM | COCCCCc1cc(CC(CC(N)C(O)CC(C(=O)NCC2C3COCC23)C(C)C)C(C)C)cnc1OC (centres unmarked) [Example 36BBBB]
3.1 nM | COCCCCc1cc(CC(CC(N)C(O)CC(C(=O)NC2C3COCC32)C(C)C)C(C)C)cnc1OC (centres unmarked) [Example 36DDDD]
2.9 nM | COCCCCc1cc(CC(CC(N)C(O)CC(C(=O)NCC2CC23CCOCC3)C(C)C)C(C)C)cnc1OC (centres unmarked) [Example 36HHHH]
3.5 nM | COCCCCc1cc(CC(CC(N)C(O)CC(C(=O)NCC2CC23CCOCC3)C(C)C)C(C)C)cnc1OC (centres unmarked) [Example 36IIII]
